Assay results from EPA's aquatic toxicity sets.

Columns and labels:
Daphnia magna = assay: 48 h LC50 (-log10 mol/L); higher = more toxic
Pimephales promelas = assay: 96 h LC50 (-log10 mol/L); higher = more toxic
Tetrahymena pyriformis = assay: 48 h IGC50 (-log10 mol/L); higher = more toxic

Row | SMILES | 48 h LC50 (-log10 mol/L) (Daphnia magna) | 96 h LC50 (-log10 mol/L) (Pimephales promelas) | 48 h IGC50 (-log10 mol/L) (Tetrahymena pyriformis)
1 | CC(OC(=O)c1cc(Oc2ccc(C(F)(F)F)cc2Cl)ccc1[N+](=O)[O-])C(=O)O (configuration not stated) | 4.5 | – | –
2 | CC[C@H]1OC(=O)[C@H](C)[C@@H](O[C@H]2C[C@@](C)(OC)[C@@H](O)[C@H](C)O2)[C@H](C)[C@@H](O[C@@H]2O[C@H](C)C[C@H](N(C)C)[C@H]2O)[C@](C)(OC)C[C@@H](C)C(=O)[C@H](C)[C@@H](O)[C@]1(C)O | 4.6 | – | –
3 | O=[N+]([O-])c1ccc(Cl)cc1 | 4.31 | – | –
4 | O=S1(=O)c2ccccc2-c2ccccc21 | 4.57 | – | –
5 | CCCCCCCCCCC[C@@H](C[C@@H]1OC(=O)[C@H]1CCCCCC)OC(=O)[C@H](CC(C)C)NC=O | 4.85 | – | –
6 | Cc1cc(C)cc(OCC2CNC(=O)O2)c1 (configuration not stated) | 3.47 | – | –
7 | Clc1cc(Cl)c(Cl)c(Cl)c1 | 4.87 | – | –
8 | N#Cc1c(Cl)c(Cl)c(Cl)c(C#N)c1Cl | 6.21 | – | –
9 | CC(C)C1OCC=CCO1 | 2.27 | – | –
10 | CCCCC | 3.87 | – | –
11 | CCOP(=O)(SC(C)CC)N1CCSC1=O (configuration not stated) | 5.76 | – | –
12 | CN/C(=C\[N+](=O)[O-])NCCSCc1ccc(CN(C)C)o1 | 2.69 | – | –
13 | CC1(C)[C@H](C(=O)O[C@H](C#N)c2cccc(Oc3ccccc3)c2)[C@@H]1C(Br)C(Br)(Br)Br (some centres not stated) | 9.95 | – | –
14 | NC(=O)N/N=C/c1ccc([N+](=O)[O-])o1 | 3.84 | – | –
15 | Clc1ccc(Cl)c(-c2cc(Cl)c(Cl)cc2Cl)c1 | 7.51 | – | –
16 | O=NN(c1ccccc1)c1ccccc1 | 4.4 | – | –
17 | C[C@]12C=CC(=O)C=C1C(Cl)=C[C@@H]1[C@@H]2[C@@H](O)C[C@@]2(C)[C@H]1CC[C@]2(O)C(=O)CO | 3.96 | – | –
18 | N#Cc1ncccn1 | 3.34 | – | –
19 | Clc1ccc(Cl)c(-c2cc(Cl)ccc2Cl)c1 | 6.99 | – | –
20 | CCOP(=O)(OCC)OC(=CCl)c1ccc(Cl)cc1Cl | 6.56 | – | –
21 | CCC(C)c1ccccc1OC(=O)NC (configuration not stated) | 6.32 | – | –
22 | CC(Cc1ccc(C(C)(C)C)cc1)CN1C[C@@H](C)O[C@@H](C)C1 (some centres not stated) | 5.1 | – | –
23 | c1ccc2cc3c(ccc4ccccc43)cc2c1 | 6.22 | – | –

Row | SMILES | 48 h LC50 (-log10 mol/L) (Daphnia magna) | 96 h LC50 (-log10 mol/L) (Pimephales promelas) | 48 h IGC50 (-log10 mol/L) (Tetrahymena pyriformis)
24 | ClCC1CO1 (configuration not stated) | 3.59 | – | –
25 | NC[C@@H]1O[C@H](O[C@H]2[C@@H](O)[C@H](O[C@@H]3[C@@H](O)[C@H](N)C[C@H](N)[C@H]3O[C@H]3O[C@H](CO)[C@@H](O)[C@H](O)[C@H]3N)O[C@@H]2CO)[C@H](N)[C@@H](O)[C@@H]1O | 3.09 | – | –
26 | Oc1cc(Cl)ccc1Oc1ccc(Cl)cc1Cl | 6.11 | – | –
27 | CC(=O)OCC(CCn1cnc2cnc(N)nc21)COC(C)=O | 2.59 | – | –
28 | CN1C(=O)CN=C(c2ccccc2)c2cc(Cl)ccc21 | 4.82 | – | –
29 | CC1(C)C(C=C(Cl)Cl)C1C(=O)OCc1cccc(Oc2ccccc2)c1 (configuration not stated) | 8.07 | – | –
30 | O=S1(=O)C=Cc2ccccc21 | 4.07 | – | –
31 | Cc1ccc(Cl)cc1Cl | 5.42 | – | –
32 | CN(C)C(=N)N=C(N)N | 1.98 | – | –
33 | c1ccc2c(c1)Cc1ccccc1O2 | 3.95 | – | –
34 | CCCCN(CC)C(=O)SCCC | 4.47 | – | –
35 | CNC(=S)N(C)C | 2.19 | – | –
36 | O=c1ccc2ccccc2o1 | 4.03 | – | –
37 | c1cc2ccc3cccc4ccc(c1)c2c34 | 6.17 | – | –
38 | CC1=CC(=O)C(C)=C(C)C1=O | 5 | – | –
39 | FCC(F)(F)F | 2.02 | – | –
40 | Cc1cc(C)cc(C)c1 | 4.3 | – | –
41 | CCC(CC)Nc1c([N+](=O)[O-])cc(C)c(C)c1[N+](=O)[O-] | 3.73 | – | –
42 | O=S(=O)(c1ccc(Cl)cc1)c1cc(Cl)c(Cl)cc1Cl | 4.71 | – | –
43 | C1CCCC1 | 3.81 | – | –
44 | CN=C=S | 5.42 | – | –
45 | Cc1cc(Cl)cc(Cl)c1O | 5.63 | – | –
46 | NC(=O)N1c2ccccc2C=Cc2ccccc21 | 4.23 | – | –

Row | SMILES | 48 h LC50 (-log10 mol/L) (Daphnia magna) | 96 h LC50 (-log10 mol/L) (Pimephales promelas) | 48 h IGC50 (-log10 mol/L) (Tetrahymena pyriformis)
47 | CN(C)c1nc(=O)n(C2CCCCC2)c(=O)n1C | 3.22 | – | –
48 | COc1c(C(C)(C)C)cc([N+](=O)[O-])c(C)c1[N+](=O)[O-] | 5.64 | – | –
49 | CN1CCCC1=O | 4.91 | – | –
50 | CN=C(NC#N)NCCSCc1nc[nH]c1C | 2.53 | – | –
51 | O=c1[nH]cc(F)c(=O)[nH]1 | 3.72 | – | –
52 | O=c1cc[nH]c(=S)[nH]1 | 4.22 | – | –
53 | Brc1nc(Br)c(Br)[nH]1 | – | 4.7 | 4.43
54 | Cc1ccc(C)c(O)c1C | – | 4.22 | 3.28
55 | CC(=O)c1ccccc1 | – | 2.87 | 2.54
56 | CCCCOC(=O)/C=C/C(=O)OCCCC | – | 5.52 | 4.49
57 | C=CCc1ccc(O)c(OC)c1 | – | 3.83 | 3.42
58 | CC(C)=NO | – | 2.12 | 1.75
59 | O=Cc1ccc(Oc2ccccc2)cc1 | – | 4.63 | 4.26
60 | CCCC=O | – | 3.65 | 2.62
61 | C=CC(=O)OC1CCCCC1 | – | 5.02 | 3.76
62 | N#Cc1cccc([N+](=O)[O-])c1 | – | 3.39 | 3.45
63 | CCCCOC(=O)CCCCC(=O)OCCCC | – | 4.85 | 3.79
64 | C=CCC(O)C=C (configuration not stated) | – | 3.41 | 3.25
65 | CC(C)(CC(=O)O)CC(=O)O | – | 1.05 | 2.34
66 | Cc1nc(C)c(C)o1 | – | 2.4 | 1.99
67 | CCCOC(C)=O | – | 3.23 | 1.76
68 | NC(=O)c1ccccc1N | – | 2.54 | 2.13
69 | Cc1ccccn1 | – | 2.02 | 1.99

Row | SMILES | 48 h LC50 (-log10 mol/L) (Daphnia magna) | 96 h LC50 (-log10 mol/L) (Pimephales promelas) | 48 h IGC50 (-log10 mol/L) (Tetrahymena pyriformis)
70 | CCCCCO | – | 2.22 | 1.97
71 | CCOC(=O)CCCCCCCCC(=O)OCC | – | 4.98 | 4.35
72 | Cc1ccc(C)o1 | – | 3.13 | 2.52
73 | COC(=O)c1cc(Cl)ccc1Cl | – | 4.17 | 3.81
74 | CCOc1cc(C=O)ccc1O | – | 3.28 | 3.02
75 | Oc1ccc(Cl)cc1O | – | 4.96 | 4.06
76 | C=CCC#N | – | 2.57 | 1.52
77 | CC(C)O | – | 0.778 | 1.12
78 | CCc1ccccn1 | – | 2.41 | 2.13
79 | O=Cc1cc(O)ccc1[N+](=O)[O-] | – | 3.6 | 3.33
80 | C#CC(C)(C)O | – | 1.41 | 1.69
81 | CCCCCCCBr | – | 5.09 | 4.49
82 | Cc1ccc(N)c([N+](=O)[O-])c1 | – | 3.79 | 3.37
83 | O=C(c1ccc(Br)cc1)c1cccnc1 | – | 4.11 | 3.82
84 | c1ccoc1 | – | 3.05 | 1.35
85 | c1ccc2occc2c1 | – | 3.93 | 2.89
86 | CC(O)CCl (configuration not stated) | – | 2.59 | 1.51
87 | CCCCOC(C)=O | – | 3.81 | 2.51
88 | CCOC(=O)C(Cc1ccccc1)C(=O)OCC | – | 4.66 | 3.71
89 | CCOP(=O)(Cc1ccccc1)OCC | – | 2.83 | 2.57
90 | CCOc1ccc(C=O)cc1 | – | 3.74 | 3.07
91 | CC(=O)c1cccn1C | – | 2.9 | 2.31
92 | CCCCC(C)=O | – | 2.37 | 1.66

Row | SMILES | 48 h LC50 (-log10 mol/L) (Daphnia magna) | 96 h LC50 (-log10 mol/L) (Pimephales promelas) | 48 h IGC50 (-log10 mol/L) (Tetrahymena pyriformis)
93 | C=CC(=O)OCC | – | 4.6 | 3.52
94 | NC(=O)c1ccccc1 | – | 2.26 | 2.09
95 | Cc1cc(C)c(C#N)c(=O)[nH]1 | – | 2.98 | 2.3
96 | Nc1ccc(F)cc1 | – | 3.82 | 3.59
97 | OCCCc1cccnc1 | – | 2.96 | 2.16
98 | CCCCOC(=O)CCC(=O)OCCCC | – | 4.71 | 3.51
99 | CCOC(=O)c1ccccc1 | – | 4.25 | 2.99
100 | O=Cc1ccc(Cl)cc1Cl | – | 4.99 | 4.04
101 | CC(C)(O)CCc1ccccc1 | – | 3.39 | 2.93
102 | CCOC(=O)c1ccc(N)cc1 | – | 3.67 | 3.7
103 | N#Cc1ccccn1 | – | 2.16 | 2.17
104 | CCCCCC(=O)O | – | 2.84 | 2.79
105 | O=Cc1ccc(O)cc1O | – | 4.02 | 3.52
106 | COC(=O)c1ccc(Cl)cc1 | – | 4.16 | 3.42
107 | CCCCCCCCBr | – | 5.36 | 4.87
108 | Oc1c(I)cc(I)cc1I | – | 5.59 | 5.67
109 | c1ccccc1 | – | 3.44 | 2.88
110 | CCCCCCCCCCCO | – | 5.22 | 4.96
111 | CCC(C)=O | – | 1.35 | 1.25
112 | CCNCc1ccccc1 | – | 3.37 | 3.22
